# Results taken from ChEMBL document CHEMBL1201862, “PubChem BioAssay data set” (2004).
#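 Cells were grown in 96-well plates and exposed to each compound for 48 hours at five concentrations; endpoints were interpolated linearly between bracketing concentrations, or set to the highest concentration if not reached. GI50 is the concentration that inhibits growth by half.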 Activity calls are given as the source filed them. No stated cut-off is given here; in the data, active = GI50 up to about 1.1 µM and inactive = higher.
# Assays:
# Assay in all cases: NCI tumour cell line growth inhibition, 48 h
# [1] = system: 786-0
# [2] = system: A498
# [3] = system: A549
# [4] = system: ACHN
# [5] = system: CAKI-1
# [6] = system: CCRF-CEM
# [7] = system: COLO 205
# [8] = system: DLD-1
# [9] = system: DMS-114
# [10] = system: DMS-273
# [11] = system: EKVX
# [12] = system: HCC 2998
# [13] = system: HCT-116
# [14] = system: HCT-15
# [15] = system: HL-60
# [16] = system: HOP-18
# [17] = system: HOP-62
# [18] = system: HOP-92
# [19] = system: HT-29
# [20] = system: IGROV-1
# [21] = system: K562
# [22] = system: KM-20L2
# [23] = system: KM12
# [24] = system: LOX IMVI
# [25] = system: LXFL 529
# [26] = system: M14
# [27] = system: M19-MEL
# [28] = system: MOLT-4
# [29] = system: Malme-3M
# [30] = system: NCI-H226
# [31] = system: NCI-H23
# [32] = system: NCI-H460
# [33] = system: NCI-H522
# [34] = system: OVCAR-3
# [35] = system: OVCAR-4
# [36] = system: OVCAR-5
# [37] = system: OVCAR-8
# [38] = system: RPMI-8226
# [39] = system: RXF 393
# [40] = system: RXF 631
# [41] = system: SF-268
# [42] = system: SF-295
# [43] = system: SF-539
# [44] = system: SK-MEL-28
# [45] = system: SK-MEL-2
# [46] = system: SK-MEL-5
# [47] = system: SK-OV-3
# [48] = system: SN12C
# [49] = system: SNB-19
# [50] = system: SNB-75
# [51] = system: SNB-78
# [52] = system: SR
# [53] = system: SW-620
# [54] = system: TK-10
# [55] = system: U-251
# [56] = system: UACC-257
# [57] = system: UACC-62
# [58] = system: UO-31
# [59] = system: XF498
# [60] = system: MCF7
# [61] = system: NCI/ADR-RES
compound,measurement,setting,value
Cc1ccccc1/C=C/c1csnn1,GI50,[1],> 100 µM (inactive)
same,GI50,[2],> 100 µM (inactive)
same,GI50,[3],> 57.3 µM (inactive)
same,GI50,[4],> 100 µM (inactive)
same,GI50,[5],> 100 µM (inactive)
same,GI50,[6],60.3 µM (inactive)
same,GI50,[7],> 100 µM (inactive)
same,GI50,[8],> 49.5 µM (inactive)
same,GI50,[9],> 40.6 µM (inactive)
same,GI50,[10],> 100 µM (inactive)
same,GI50,[11],> 100 µM (inactive)
same,GI50,[12],> 100 µM (inactive)
same,GI50,[13],> 44 µM (inactive)
same,GI50,[14],> 42.2 µM
same,GI50,[15],21.1 µM (inactive)
same,GI50,[16],> 100 µM (inactive)
same,GI50,[17],> 100 µM (inactive)
same,GI50,[18],> 100 µM (inactive)
same,GI50,[19],> 100 µM (inactive)
same,GI50,[20],> 100 µM (inactive)
same,GI50,[21],> 100 µM (inactive)
same,GI50,[22],> 100 µM (inactive)
same,GI50,[23],> 100 µM (inactive)
same,GI50,[24],> 58.7 µM (inactive)
same,GI50,[25],> 100 µM (inactive)
same,GI50,[26],> 100 µM (inactive)
same,GI50,[27],> 80.5 µM (inactive)
same,GI50,[28],> 100 µM (inactive)
same,GI50,[29],> 100 µM (inactive)
same,GI50,[30],> 100 µM (inactive)
same,GI50,[31],> 100 µM (inactive)
same,GI50,[32],> 47.3 µM (inactive)
same,GI50,[33],> 100 µM (inactive)
same,GI50,[34],> 100 µM (inactive)
same,GI50,[35],> 100 µM (inactive)
same,GI50,[36],> 100 µM (inactive)
same,GI50,[37],> 100 µM (inactive)
same,GI50,[38],33.4 µM (inactive)
same,GI50,[39],> 100 µM (inactive)
same,GI50,[40],> 100 µM (inactive)
same,GI50,[41],> 46.2 µM (inactive)
same,GI50,[42],> 100 µM (inactive)
same,GI50,[43],> 100 µM (inactive)
same,GI50,[44],> 100 µM (inactive)
same,GI50,[45],> 100 µM (inactive)
same,GI50,[46],> 100 µM (inactive)
same,GI50,[47],> 100 µM (inactive)
same,GI50,[48],> 100 µM (inactive)
same,GI50,[49],> 100 µM (inactive)
same,GI50,[50],> 100 µM (inactive)
same,GI50,[51],> 100 µM (inactive)
same,GI50,[52],> 100 µM (inactive)
same,GI50,[53],> 56.4 µM (inactive)
same,GI50,[54],> 100 µM (inactive)
same,GI50,[55],> 100 µM (inactive)
same,GI50,[56],> 100 µM (inactive)
same,GI50,[57],> 100 µM (inactive)
same,GI50,[58],> 100 µM (inactive)
same,GI50,[59],> 100 µM (inactive)
COc1ccc2c(c1)CCc1c(CO)c(COC(=O)NC(C)C)n(C)c1-2,GI50,[1],4.41 µM (inactive)
same,GI50,[2],9.29 µM (inactive)
same,GI50,[3],6.53 µM (inactive)
same,GI50,[4],3.83 µM (inactive)
same,GI50,[5],5.81 µM (inactive)
same,GI50,[6],2.64 µM (inactive)
same,GI50,[7],2.09 µM (inactive)
same,GI50,[8],4.72 µM (inactive)
same,GI50,[9],2.59 µM (inactive)
same,GI50,[10],5.48 µM (inactive)
same,GI50,[11],22.9 µM (inactive)
same,GI50,[12],8.85 µM (inactive)
same,GI50,[13],2.91 µM (inactive)
same,GI50,[14],13 µM
same,GI50,[15],1.59 µM (inactive)
same,GI50,[16],1.55 µM (inactive)
same,GI50,[17],24 µM (inactive)
same,GI50,[18],4.01 µM (inactive)
same,GI50,[19],3.14 µM (inactive)
same,GI50,[20],5.68 µM (inactive)
same,GI50,[21],2.41 µM (inactive)
same,GI50,[22],6.59 µM (inactive)
same,GI50,[23],6.61 µM (inactive)
same,GI50,[24],4.91 µM (inactive)
same,GI50,[25],3.21 µM (inactive)
same,GI50,[26],6.11 µM (inactive)
same,GI50,[27],3.7 µM (inactive)
same,GI50,[60],9.79 µM (inactive)
same,GI50,[28],2.68 µM (inactive)
same,GI50,[29],4.15 µM (inactive)
same,GI50,[30],2.68 µM (inactive)
same,GI50,[31],2.97 µM (inactive)
same,GI50,[32],5.56 µM (inactive)
same,GI50,[33],3.44 µM (inactive)
same,GI50,[61],16.1 µM (inactive)
same,GI50,[34],8.51 µM (inactive)
same,GI50,[35],4.34 µM (inactive)
same,GI50,[36],24.2 µM (inactive)
same,GI50,[37],3.33 µM (inactive)
same,GI50,[38],2.24 µM (inactive)
same,GI50,[39],7.55 µM (inactive)
same,GI50,[40],13 µM (inactive)
same,GI50,[41],6.49 µM (inactive)
same,GI50,[42],9.35 µM (inactive)
same,GI50,[43],12.9 µM (inactive)
same,GI50,[44],5.02 µM (inactive)
same,GI50,[45],11.2 µM (inactive)
same,GI50,[46],4.51 µM (inactive)
same,GI50,[47],18.3 µM (inactive)
same,GI50,[48],8.93 µM (inactive)
same,GI50,[49],6.87 µM (inactive)
same,GI50,[50],4.82 µM (inactive)
same,GI50,[51],4.38 µM (inactive)
same,GI50,[53],3.74 µM (inactive)
same,GI50,[54],14.6 µM (inactive)
same,GI50,[55],5.41 µM (inactive)
same,GI50,[56],4.42 µM (inactive)
same,GI50,[57],5.6 µM (inactive)
same,GI50,[58],4.97 µM (inactive)
same,GI50,[59],7.83 µM (inactive)
